Measurements published in US20160146819A1, “CLASSIFICATION SYSTEM, METHODS AND KIT FOR CLASSIFYING, PREDICTING AND TREATING BREAST CANCER” (UNIVERSITY OF MIAMI, priority 2013, published 2016).
Entries after “also recorded” stand apart in the source; their conditions may differ.

Test system: MDA-MB-453 breast cancer cell line (HR2+/HER2+, ER-negative)
Experiment: Cell proliferation assay, MDA-MB-453 cells
Type: cell-based, human
Conditions: MDA-MB-453 (ER-negative control); ICI 182,780 100 nM alone
Description: All cell lines were cultured according to ATCC's guidelines. BT20, HCC1187, MDAMB468 and SUM159 cells were trypsinized with 0.05% trypsin/EDTA and plated at appropriate densities (BT20: 6,000, HCC1187: 10,000, MDAMB468: 4,000 and SUM159: 1,000 cells/well) in 96 well plates in DMEM+10% FBS. The next day Calcitriol and Taxol were added at concentrations of 25 nM and 1.5 nM respectively (Day0). For ZR75B, 4000 cells/well were plated in 96 well plates in DMEM+10% FBS. […] Calcitriol and 5 nM IC1180,782 were added the next day with fresh medium (Day0). Media was refreshed every two days and cell proliferation assay was performed on day 6 for above cell lines. The T47D cells were trypsinized with phenol red free Triple Express (Invitrogen) and washed once with PBS and 10,000 cells/well were plated in phenol red free DMEM+5% charcoal stripped FBS (CSFBS) in 96 well plates and cultured for 3 days. On the fourth day, 10 nM 17 beta estradiol (E2) was added into all the wells except non-drug treatment group, in addition to 10 nM IC1180,782, 10 nM R1881 and 50 nM Calcitriol in different groups with fresh phenol red free DMEM+5% CSFBS (Day0). […] All the proliferation assays were carried out using cell titer blue reagent (Promega) and fluorescence was measured using Bio-Tek spectrophotometer at 530/25 nm (excitation) and 590/35 nm (emission). […]

## C[C@]12CC[C@@H]3c4ccc(O)cc4C[C@@H](CCCCCCCCC[S+]([O-])CCCC(F)(F)C(F)(F)F)[C@H]3[C@@H]1CC[C@@H]2O (stereo partly shown) [ICI 182,780]
  cell proliferation: no inhibition was observed; also recorded: no inhibition of cell proliferation
